Data on 1 molecule can be found in patent publication US20160022751A1, “NOVEL COMPOSITION FOR TREATING ALZHEIMER'S DISEASE AND IMPROVING COGNITIVE FUNCTION OF ALZHEIMER'S PATIENTS” (GANGNEUNG-WONJU NATIONAL UNIVERSITY INDUSTRY ACADEMY …, priority 2014, published 2016).

One assay deals with NEP. The experiment in a line: NEP mRNA expression in HMO6 human microglial cells (qPCR). The format is cell-based. As to the method:
HMO6 human microglial cell line was kindly provided by Dr. SU Kim (Chung-Ang University, Korea). HMO6 cells were grown in Dulbecco's Modified Eagle's Medium (DMEM) (Hyclone, USA) supplemented with 10% fetal bovine serum, 100 U/ml penicillin, and 100 μg/ml streptomycin (Invitrogen, USA). Cultures were maintained under 5% CO2 at 37° C. in tissue culture flasks. Cells were grown to >90% confluency and subjected to no more than 20 cell passages. Medium was changed every 2-3 days. Subconfluent cells were harvested and seeded at a density of 5×10^5 cells or 5×10^6 cells in poly-L-lysine-coated 35-mm or 60-mm culture plates. […]
(§1) Total RNA extracts from HMO6 cells or perfused brain tissue were prepared using the Trizol method (Invitrogen). cDNA was synthesized from RNA by reverse transcription of 1 μg total RNA using the Improm-II reverse transcription system (Promega, Wis., USA) and oligo dT primers in a total volume of 20 μl. […] Relative sample expression levels were calculated using Rotor-Gene 6000 Series Software 1.7 and were expressed relative to β-actin for mice or glyceraldehyde 3-phosphate dehydrogenase for HMO6 cells and corrected for between-run variability. Data for the experimental samples are expressed as a percentage of the internal control gene. […]
(In general: Quantitative PCR measures a nucleic acid by following its amplification.)

The next assay deals with IDE. The experiment in a line: IDE mRNA expression in HMO6 human microglial cells (qPCR). The format is cell-based. As to the method:
HMO6 human microglial cell line was kindly provided by Dr. SU Kim (Chung-Ang University, Korea). HMO6 cells were grown in Dulbecco's Modified Eagle's Medium (DMEM) (Hyclone, USA) supplemented with 10% fetal bovine serum, 100 U/ml penicillin, and 100 μg/ml streptomycin (Invitrogen, USA). Cultures were maintained under 5% CO2 at 37° C. in tissue culture flasks. Cells were grown to >90% confluency and subjected to no more than 20 cell passages. Medium was changed every 2-3 days. Subconfluent cells were harvested and seeded at a density of 5×10^5 cells or 5×10^6 cells in poly-L-lysine-coated 35-mm or 60-mm culture plates. After 24 h of plating, the medium was replaced with serum-free DMEM, washed once with phosphate buffered saline (PBS), and treated with Rg3 or Aβ42.
Total RNA extracts from HMO6 cells or perfused brain tissue were prepared using the Trizol method (Invitrogen). cDNA was synthesized from RNA by reverse transcription of 1 μg total RNA using the Improm-II reverse transcription system (Promega, Wis., USA) and oligo dT primers in a total volume of 20 μl. PCR amplification was performed using the primers listed in Table 1 (Bioneer, Korea). qPCR reactions were run on a Rotor-Gene 6000 (Corbett Research, Sydney, Australia) using a SensiMix™ SYBR Hi-ROX Kit (Bioline, UK) in 20 μl reaction mixtures. Each real-time-PCR master mix contained 10 μl 2× enzyme master mix, 7 μl RNase free water, 1 μl of each primer (10 pM each), and 1 μl diluted template. The PCR was performed with an initial pre-incubation step for 15 min at 95° C., followed by 45 cycles of 95° C. for 15 s, annealing at 52° C. for 15 s, and extension at 72° C. for 10 s. […] Relative sample expression levels were calculated using Rotor-Gene 6000 Series Software 1.7 and were expressed relative to β-actin for mice or glyceraldehyde 3-phosphate dehydrogenase for HMO6 cells and corrected for between-run variability. Data for the experimental samples are expressed as a percentage of the internal control gene. […]

A further assay relates to clathrin. The experiment in a line: Clathrin mRNA expression in HMO6 human microglial cells (qPCR). Particulars: Aβ42 (5 μM) and/or Rg3 (2.5 or 5 μg/ml), 24 h (FIG. 15C). The format is cell-based. The procedure:
FIG. 15 is a graph showing a change in the expression of caveolin-1, caveolin-2, clathrin, neprilysin (NEP), insulin-degrading enzyme (IDE) according to treating Aβ and/or ginsenoside Rg3 to HMO6 human microglial cells. HMO6 cells were plated on 35 mm cell culture plates or chamber slides and Aβ42 (5 μM) and/or Rg3 (2.5 or 5 μg/ml) were treated for 24 h. Then, the mRNA expression was determined by quantitative RT-PCR. The expression of caveolin (A-B), clathrin (C) which are endocytosis-related genes and NEP (D) and IDE (E) which are genes encoding Aβ-degrading enzymes were compared depending on the presence or absence of Rg3/Aβ42. The results are shown as mean±SD. * P<0.05, ** P<0.01, *** P<0.001. […]
as §1

The subject of another assay is Aβ42. The experiment in a line: Passive avoidance trials (PAT) in Aβ42-infused animals. The format is in vivo. The conditions noted are these: Aβ42 rats administered Rg3 (FIG. 25). As to the method:
Male BALB/c mice (10 weeks old) were purchased from Samtaco (Korea), and were adapted to laboratory conditions (temperature: 20±2° C., relative humidity: 50%, light/dark cycle: 12 h) for 1 week. Five-week-old male Sprague-Dawley rats were obtained from Daehan-Biolink (Korea) for learning and memory testing. The animals (n=5/group) were maintained at a constant temperature (23±2° C.), relative humidity, 55±10%, and 12-h light/dark cycle. The animals were fed a standard rodent chow and purified water ad libitum. Lyophilized Aβ42 (0.5 mg, Bachem Torrance, USA) was resuspended in PBS (pH 7.4) by shaking for 7 days at room temperature to prepare the fibrillar-aggregated Aβ42 (fAβ42). At 10 weeks of age, mice were anesthetized, and 1 μl fAβ42 (350 μM stock concentration) was stereotaxically injected unilaterally into the parietal cortex (anterior 1.7 mm, lateral 1 mm, and ventral 1 mm to the bregma above the hippocampus within 1 min) (Mohajeri et al., J. Biol. Chem., 277: 35460-35465, 2002)
The present inventor performed learning and memory tests using rats in order to investigate whether Rg3 can ameliorate symptoms of Alzheimer's model animals in deed. […] The latency time of stay in the light room from lights-on was recorded following an electric shock (1 mA for 2 s) in the dark compartment. […] The mean time spent to escape onto the platform was recorded.

[1] abbreviates: Rg3-treated HMO6 cells (FIG. 14).

On to `CC(C)=CCC[C@](C)(O)[C@H]1CC[C@]2(C)[C@@H]1[C@H](O)C[C@@H]1[C@@]3(C)CC[C@H](O[C@@H]4O[C@H](CO)[C@@H](O)[C@H](O)[C@H]4O[C@@H]4O[C@H](CO)[C@@H](O)[C@H](O)[C@H]4O)C(C)(C)[C@@H]3CC[C@]12C` [ginsenoside Rg3], for which the “NEP mRNA” value in the assay on NEP (HMO6 cells, Aβ42 (5 μM) and/or Rg3 (2.5 or 5 μg/ml), 24 h (FIG. 15D)) is on record as “increased significantly”. For the same molecule, the “NEP mRNA expression” value in the assay with NEP (setting [1]) is reported as “dose-dependently increased”. Besides, the “IDE mRNA” value with IDE (HMO6 cells, Aβ42 (5 μM) and/or Rg3 (2.5 or 5 μg/ml), 24 h (FIG. 15E)) was “increased significantly”. For the same molecule, in the assay with IDE (setting [1]), the “IDE expression versus untreated control group” value is listed as “about six-fold higher” and the “IDE mRNA expression” value was “dose-dependently increased”. In addition, the “clathrin-mediated Aβ42 endocytosis (clathrin mRNA)” value with clathrin was “promoted Aβ42 uptake into HMO6 cells via a caveolin1 and clathrin-mediated endocytic mechanism”. Besides, the “learning and memory functions, passive avoidance” value in the assay with Aβ42 is “maintained learning and memory functions at 4-5 weeks”.
